For 27 targets, thermal stability z-score results are on record in the supplement of paper PMC12463676, “Small-molecule dissolution of stress granules by redox modulation benefits ALS models” (Nature Chemical Biology, 2025).

Compound in one test: NC(=O)CCCCC1CCSS1 [lipoamide]
Nature of the test: thermal stability z-score vs DMSO; higher = more thermally stabilized by treatment. As to conditions: HeLa, lipoamide concentration 100 µM. As to the method: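 Cellular thermal proteome profiling in HeLa cells. Cells were treated with 100 µM lipoamide for 1 h, with or without 1 mM arsenate for a further 1 h, then heated to ten temperatures (37-66.3 °C), and soluble protein was quantified by TMT mass spectrometry relative to 0.1% DMSO controls. The thermal stability score (sum of log2 fold changes minus the abundance score) was transformed to a z-score; mean of n = 3 experiments.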

Compound in another test: O=[As]([O-])(O)O.[K+] [potassium arsenate]
The test is described as above. Conditions: HeLa; arsenate concentration 1 mM. As to the method: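 Cellular thermal proteome profiling in HeLa cells treated with 1 mM arsenate for 1 h (DMSO pretreatment), heated to ten temperatures (37-66.3 °C). Soluble protein was quantified by TMT mass spectrometry relative to DMSO controls; the thermal stability score was transformed to a z-score; mean of n = 3 experiments.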

Where [1] appears, read: arsenate co-treatment: 1 mM arsenate 1 h.
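Note: each temperature applied for 3 min, abundance score taken as mean log2 fold change at the two lowest temperatures, z-score obtained by mean subtraction and division by SD.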

Sequence of UniProt O43660 (O43660 whole entry): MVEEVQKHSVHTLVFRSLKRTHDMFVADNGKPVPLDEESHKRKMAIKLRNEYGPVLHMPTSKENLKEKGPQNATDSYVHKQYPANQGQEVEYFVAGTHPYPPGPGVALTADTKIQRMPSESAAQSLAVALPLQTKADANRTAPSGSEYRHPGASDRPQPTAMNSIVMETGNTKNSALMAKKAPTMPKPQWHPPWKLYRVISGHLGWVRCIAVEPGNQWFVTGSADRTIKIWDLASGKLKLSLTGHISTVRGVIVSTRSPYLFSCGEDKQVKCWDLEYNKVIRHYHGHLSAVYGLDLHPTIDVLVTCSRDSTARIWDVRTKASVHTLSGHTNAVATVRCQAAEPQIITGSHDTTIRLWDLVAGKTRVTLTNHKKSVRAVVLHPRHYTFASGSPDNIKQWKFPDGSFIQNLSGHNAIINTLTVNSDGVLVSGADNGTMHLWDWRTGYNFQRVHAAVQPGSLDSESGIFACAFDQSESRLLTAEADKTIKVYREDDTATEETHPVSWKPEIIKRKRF
Sequence of UniProt Q96I25 (Q96I25 whole entry): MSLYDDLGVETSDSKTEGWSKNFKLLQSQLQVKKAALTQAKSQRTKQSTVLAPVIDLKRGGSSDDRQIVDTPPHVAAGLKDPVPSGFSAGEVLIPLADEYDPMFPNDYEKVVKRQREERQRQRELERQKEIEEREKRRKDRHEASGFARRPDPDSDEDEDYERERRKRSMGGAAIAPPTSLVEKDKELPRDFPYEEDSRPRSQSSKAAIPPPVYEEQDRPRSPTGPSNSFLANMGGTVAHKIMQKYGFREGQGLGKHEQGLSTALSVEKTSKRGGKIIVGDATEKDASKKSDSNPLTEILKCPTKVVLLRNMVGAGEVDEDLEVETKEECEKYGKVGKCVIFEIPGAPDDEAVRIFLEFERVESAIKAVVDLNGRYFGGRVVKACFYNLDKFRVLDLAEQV
Sequence of UniProt Q86W33 (Q86W33 whole entry): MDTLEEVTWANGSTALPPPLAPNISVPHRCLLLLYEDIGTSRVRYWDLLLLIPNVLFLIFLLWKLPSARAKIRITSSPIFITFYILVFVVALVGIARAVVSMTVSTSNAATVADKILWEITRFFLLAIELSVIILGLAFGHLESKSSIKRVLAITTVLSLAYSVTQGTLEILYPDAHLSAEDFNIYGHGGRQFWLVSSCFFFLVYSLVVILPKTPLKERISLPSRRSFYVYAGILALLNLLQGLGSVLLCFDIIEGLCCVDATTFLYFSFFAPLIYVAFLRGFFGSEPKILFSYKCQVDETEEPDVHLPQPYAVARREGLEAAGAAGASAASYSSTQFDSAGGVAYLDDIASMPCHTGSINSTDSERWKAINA
Sequence of UniProt Q99081 (Q99081 whole entry): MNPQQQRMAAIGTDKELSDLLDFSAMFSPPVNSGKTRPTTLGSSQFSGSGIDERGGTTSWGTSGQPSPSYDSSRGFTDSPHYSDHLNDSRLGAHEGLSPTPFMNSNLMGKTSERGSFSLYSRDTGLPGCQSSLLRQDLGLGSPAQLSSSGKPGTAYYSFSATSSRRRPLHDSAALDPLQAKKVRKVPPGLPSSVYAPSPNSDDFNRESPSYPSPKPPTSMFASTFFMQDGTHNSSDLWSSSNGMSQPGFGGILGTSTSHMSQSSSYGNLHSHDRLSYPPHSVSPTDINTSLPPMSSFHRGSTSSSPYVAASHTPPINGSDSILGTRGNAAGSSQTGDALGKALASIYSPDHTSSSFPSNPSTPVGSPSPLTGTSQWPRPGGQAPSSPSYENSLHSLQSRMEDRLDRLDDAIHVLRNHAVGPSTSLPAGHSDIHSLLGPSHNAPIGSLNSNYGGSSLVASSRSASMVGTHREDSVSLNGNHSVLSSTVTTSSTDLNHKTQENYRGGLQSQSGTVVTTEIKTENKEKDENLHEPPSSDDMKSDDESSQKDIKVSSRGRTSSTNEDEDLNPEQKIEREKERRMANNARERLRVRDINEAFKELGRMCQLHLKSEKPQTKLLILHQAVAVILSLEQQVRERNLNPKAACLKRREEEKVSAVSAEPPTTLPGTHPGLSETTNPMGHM
Sequence of UniProt O14795 (O14795 whole entry): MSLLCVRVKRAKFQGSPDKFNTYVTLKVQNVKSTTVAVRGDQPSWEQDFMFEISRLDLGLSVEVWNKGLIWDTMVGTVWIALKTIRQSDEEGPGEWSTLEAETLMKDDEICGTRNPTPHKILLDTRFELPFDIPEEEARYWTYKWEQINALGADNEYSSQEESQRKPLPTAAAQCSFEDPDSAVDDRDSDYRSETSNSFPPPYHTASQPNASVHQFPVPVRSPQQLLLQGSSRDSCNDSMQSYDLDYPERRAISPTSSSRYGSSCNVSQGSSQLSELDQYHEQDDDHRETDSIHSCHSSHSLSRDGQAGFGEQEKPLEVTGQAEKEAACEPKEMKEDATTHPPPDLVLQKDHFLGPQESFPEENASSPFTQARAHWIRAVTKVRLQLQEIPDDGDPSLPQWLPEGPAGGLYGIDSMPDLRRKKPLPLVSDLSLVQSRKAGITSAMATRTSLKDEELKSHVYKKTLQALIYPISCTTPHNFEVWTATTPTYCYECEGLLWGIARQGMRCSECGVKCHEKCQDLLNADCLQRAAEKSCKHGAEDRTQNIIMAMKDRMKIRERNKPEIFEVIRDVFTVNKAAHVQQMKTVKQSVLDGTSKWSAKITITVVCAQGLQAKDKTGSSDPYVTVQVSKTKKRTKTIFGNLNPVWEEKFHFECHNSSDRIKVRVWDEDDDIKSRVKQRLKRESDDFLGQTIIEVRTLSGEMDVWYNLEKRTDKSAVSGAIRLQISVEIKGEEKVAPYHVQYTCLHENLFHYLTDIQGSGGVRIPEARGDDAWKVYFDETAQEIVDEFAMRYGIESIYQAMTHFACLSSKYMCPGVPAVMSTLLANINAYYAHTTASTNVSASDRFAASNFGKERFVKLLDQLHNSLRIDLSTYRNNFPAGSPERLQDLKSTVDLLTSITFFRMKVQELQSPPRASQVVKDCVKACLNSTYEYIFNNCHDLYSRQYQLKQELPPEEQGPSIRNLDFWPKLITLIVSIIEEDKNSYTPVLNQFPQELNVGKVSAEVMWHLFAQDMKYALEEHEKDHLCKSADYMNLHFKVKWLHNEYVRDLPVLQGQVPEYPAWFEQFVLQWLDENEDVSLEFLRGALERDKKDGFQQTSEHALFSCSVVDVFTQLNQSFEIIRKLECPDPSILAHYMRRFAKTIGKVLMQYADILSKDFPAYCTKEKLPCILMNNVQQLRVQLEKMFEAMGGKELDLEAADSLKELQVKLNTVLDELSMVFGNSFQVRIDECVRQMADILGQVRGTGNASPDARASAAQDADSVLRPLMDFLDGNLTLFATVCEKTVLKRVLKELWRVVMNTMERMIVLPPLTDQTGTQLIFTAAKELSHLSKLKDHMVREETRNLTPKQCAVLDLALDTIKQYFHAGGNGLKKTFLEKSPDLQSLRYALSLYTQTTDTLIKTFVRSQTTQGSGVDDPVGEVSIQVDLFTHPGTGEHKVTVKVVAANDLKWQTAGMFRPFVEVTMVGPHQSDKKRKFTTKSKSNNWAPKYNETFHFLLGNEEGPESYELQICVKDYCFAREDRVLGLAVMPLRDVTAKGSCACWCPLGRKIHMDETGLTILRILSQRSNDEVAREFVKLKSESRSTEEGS
Sequence of UniProt Q9H553 (Q9H553 whole entry): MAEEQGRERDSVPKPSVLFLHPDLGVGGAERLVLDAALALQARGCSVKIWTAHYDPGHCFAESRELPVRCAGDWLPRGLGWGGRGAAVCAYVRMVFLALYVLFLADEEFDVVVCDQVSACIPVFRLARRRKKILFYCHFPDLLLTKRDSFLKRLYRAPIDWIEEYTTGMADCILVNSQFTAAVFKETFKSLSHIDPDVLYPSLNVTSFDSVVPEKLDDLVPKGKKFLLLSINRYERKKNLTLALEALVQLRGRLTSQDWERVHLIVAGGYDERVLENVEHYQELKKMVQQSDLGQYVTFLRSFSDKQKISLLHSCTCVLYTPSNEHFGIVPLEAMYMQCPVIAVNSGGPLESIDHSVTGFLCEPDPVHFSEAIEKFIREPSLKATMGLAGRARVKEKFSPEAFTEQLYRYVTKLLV
Sequence of UniProt Q9H936 (Q9H936 whole entry): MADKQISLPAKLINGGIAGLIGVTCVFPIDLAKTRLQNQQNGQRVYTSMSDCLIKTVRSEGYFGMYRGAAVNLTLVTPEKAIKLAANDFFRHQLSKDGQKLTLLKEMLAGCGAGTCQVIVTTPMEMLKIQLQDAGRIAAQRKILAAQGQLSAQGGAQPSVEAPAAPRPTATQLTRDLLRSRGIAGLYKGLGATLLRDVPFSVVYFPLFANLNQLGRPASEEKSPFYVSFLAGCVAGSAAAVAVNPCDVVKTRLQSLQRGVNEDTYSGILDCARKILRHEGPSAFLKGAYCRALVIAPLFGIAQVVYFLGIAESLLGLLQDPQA
Sequence of UniProt O43505 (O43505 whole entry, one chain of several): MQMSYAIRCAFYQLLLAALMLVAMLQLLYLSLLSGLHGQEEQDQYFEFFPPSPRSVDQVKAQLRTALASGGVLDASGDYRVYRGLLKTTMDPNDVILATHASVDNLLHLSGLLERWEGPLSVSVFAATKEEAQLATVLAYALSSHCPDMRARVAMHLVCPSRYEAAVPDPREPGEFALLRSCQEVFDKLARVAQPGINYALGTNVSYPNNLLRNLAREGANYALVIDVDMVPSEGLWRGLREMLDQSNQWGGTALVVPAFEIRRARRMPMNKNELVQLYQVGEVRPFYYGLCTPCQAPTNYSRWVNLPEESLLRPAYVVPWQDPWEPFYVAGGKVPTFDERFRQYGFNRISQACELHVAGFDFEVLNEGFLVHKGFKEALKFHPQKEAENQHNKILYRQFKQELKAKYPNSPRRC
Sequence of UniProt Q9UNL2 (Q9UNL2 whole entry): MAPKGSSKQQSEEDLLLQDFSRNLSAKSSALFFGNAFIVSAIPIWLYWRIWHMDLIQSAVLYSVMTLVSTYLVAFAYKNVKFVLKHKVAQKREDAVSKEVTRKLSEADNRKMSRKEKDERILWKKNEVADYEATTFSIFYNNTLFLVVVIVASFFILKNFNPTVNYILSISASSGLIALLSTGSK

In the case of CWF19L2 (UniProt Q2TBE0), the results for the thermal stability z-score with lipoamide (setting [1]), in the test with lipoamide (arsenate co-treatment: none) and with potassium arsenate were 0.0402, -0.0633 and -0.098, respectively.

Consider HIST1H1C (UniProt P16403), for which the thermal stability z-score with lipoamide (setting [1]) was 0.707; in the test with lipoamide (arsenate co-treatment: none), 0.018; in the test with potassium arsenate, 0.0976.

Turning to HINT2 (UniProt Q9BX68), the thermal stability z-score with lipoamide (setting [1]) was -0.459; with lipoamide (arsenate co-treatment: none), -0.337; with potassium arsenate it was -1.98.

In the case of SLC25A22 (UniProt Q9H936), the thermal stability z-score with lipoamide (setting [1]) is -0.147; with lipoamide (arsenate co-treatment: none), 0.0868; with potassium arsenate, -0.472.

In the case of RBM17 (UniProt Q96I25), the values for the thermal stability z-score with lipoamide (setting [1]), with lipoamide (arsenate co-treatment: none) and with potassium arsenate were 0.528, 0.441 and 0.243, respectively.

As to UNC13B (UniProt O14795), the thermal stability z-score is -0.0346 with lipoamide (setting [1]), -0.119 in the test with lipoamide (arsenate co-treatment: none) and -0.156 with potassium arsenate.

For CEBPZ (UniProt Q03701), the thermal stability z-score in the test with lipoamide (setting [1]) was 0.161; with lipoamide (arsenate co-treatment: none) it was -0.141; with potassium arsenate it was -1.01.

Take B4GAT1 (UniProt O43505): the results for the thermal stability z-score in the test with lipoamide (setting [1]), in the test with lipoamide (arsenate co-treatment: none) and in the test with potassium arsenate were -0.309, -0.831 and 0.0622, respectively.

On to ACAD9 (UniProt Q9H845), for which the thermal stability z-score is 0.127 with lipoamide (setting [1]), 0.0316 with lipoamide (arsenate co-treatment: none) and -0.21 with potassium arsenate.

Turning to APLP2 (UniProt Q06481), the values for the thermal stability z-score with lipoamide (setting [1]), with lipoamide (arsenate co-treatment: none) and with potassium arsenate were -2.13, -1.76 and -0.251, respectively.

Take PHF6 (UniProt Q8IWS0): the thermal stability z-score with lipoamide (setting [1]) was -0.33; with lipoamide (arsenate co-treatment: none), -0.552; in the test with potassium arsenate it was -3.52.

Regarding CSK (UniProt P41240), the thermal stability z-score in the test with lipoamide (setting [1]) was 0.116; in the test with lipoamide (arsenate co-treatment: none), 0.433; with potassium arsenate, -0.218.

For ELF1 (UniProt P32519), the thermal stability z-score with lipoamide (setting [1]) is -0.422; in the test with lipoamide (arsenate co-treatment: none), -0.185; with potassium arsenate, -0.287.

On to SMS (UniProt P52788), for which the thermal stability z-score with lipoamide (setting [1]) was determined as 0.652; in the test with lipoamide (arsenate co-treatment: none), 0.823; in the test with potassium arsenate, 4.34.

Take CHKA (UniProt P35790): the thermal stability z-score in the test with lipoamide (setting [1]) is 0.498; in the test with lipoamide (arsenate co-treatment: none) it was 0.357; with potassium arsenate it was -1.4.

Turning to TPRA1 (UniProt Q86W33), the thermal stability z-score is -0.68 in the test with lipoamide (setting [1]), -0.251 in the test with lipoamide (arsenate co-treatment: none) and 0.19 in the test with potassium arsenate.

In the case of SMTN (UniProt P53814), the values for the thermal stability z-score with lipoamide (setting [1]), in the test with lipoamide (arsenate co-treatment: none) and with potassium arsenate were 0.0165, 0.00756 and -0.4, respectively.

For the target ANKLE2 (UniProt Q86XL3), the results for the thermal stability z-score in the test with lipoamide (setting [1]), in the test with lipoamide (arsenate co-treatment: none) and in the test with potassium arsenate were -1.08, -0.166 and 0.76, respectively.

On to BMS1 (UniProt Q14692), for which the results for the thermal stability z-score in the test with lipoamide (setting [1]), in the test with lipoamide (arsenate co-treatment: none) and with potassium arsenate were 0.575, 0.482 and 0.723, respectively.

For ALG2 (UniProt Q9H553), the thermal stability z-score was -1.02 with lipoamide (setting [1]), -1.3 with lipoamide (arsenate co-treatment: none) and -0.992 in the test with potassium arsenate.

SSR3 (UniProt Q9UNL2): the thermal stability z-score with lipoamide (setting [1]) was -0.665; with lipoamide (arsenate co-treatment: none), -0.443; with potassium arsenate, 0.0314.

In the case of PTRH2 (UniProt Q9Y3E5), the thermal stability z-score with lipoamide (setting [1]) was -0.239; with lipoamide (arsenate co-treatment: none), -0.143; with potassium arsenate, -0.0653.

For TCF12 (UniProt Q99081), the thermal stability z-score with lipoamide (setting [1]) was -0.124; with lipoamide (arsenate co-treatment: none), -0.0813; in the test with potassium arsenate it was -0.203.

As for CTSB (UniProt P07858), the values for the thermal stability z-score in the test with lipoamide (setting [1]), with lipoamide (arsenate co-treatment: none) and with potassium arsenate were -0.289, -0.315 and -0.676, respectively.

On to HNRNPUL2 (UniProt Q1KMD3), for which the results for the thermal stability z-score in the test with lipoamide (setting [1]), with lipoamide (arsenate co-treatment: none) and in the test with potassium arsenate were 0.105, 0.057 and -0.392, respectively.

In the case of EIF5B (UniProt O60841), the thermal stability z-score was -0.519 with lipoamide (setting [1]), -0.31 with lipoamide (arsenate co-treatment: none) and 1.42 with potassium arsenate.

For the target PLRG1 (UniProt O43660), the thermal stability z-score with lipoamide (setting [1]) was 1.67; with lipoamide (arsenate co-treatment: none) it was -0.0202; in the test with potassium arsenate, -0.346.
